Results taken from PMC4472506 (Nature chemical biology, 2015).
Blank lines part the entries; values can stand above or below the compound they belong to.

Key:
[1] = target: T1, BTK (Homo sapiens, UniProt Q06187); assay: Cellular durability
[2] = target: T2, ITK (Homo sapiens, UniProt Q08881); assay: Enzymatic IC50 assay; type: biochemical
T2 sequence (Q08881 1-620): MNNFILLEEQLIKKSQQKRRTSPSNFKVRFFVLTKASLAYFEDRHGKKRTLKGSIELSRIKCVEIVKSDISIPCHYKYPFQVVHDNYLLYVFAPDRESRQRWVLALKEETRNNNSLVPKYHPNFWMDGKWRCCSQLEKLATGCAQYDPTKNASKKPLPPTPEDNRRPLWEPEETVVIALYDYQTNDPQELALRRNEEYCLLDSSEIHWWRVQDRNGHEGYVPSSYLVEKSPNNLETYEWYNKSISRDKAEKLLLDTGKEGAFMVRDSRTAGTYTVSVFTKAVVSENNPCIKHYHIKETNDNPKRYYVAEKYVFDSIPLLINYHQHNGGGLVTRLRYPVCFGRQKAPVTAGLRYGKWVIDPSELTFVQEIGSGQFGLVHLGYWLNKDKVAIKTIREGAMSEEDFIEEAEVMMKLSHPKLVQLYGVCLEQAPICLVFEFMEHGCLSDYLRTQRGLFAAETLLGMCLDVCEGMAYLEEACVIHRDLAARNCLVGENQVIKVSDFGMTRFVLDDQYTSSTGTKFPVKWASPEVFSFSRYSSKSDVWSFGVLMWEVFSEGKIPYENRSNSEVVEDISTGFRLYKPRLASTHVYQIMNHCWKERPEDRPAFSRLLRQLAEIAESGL

[3] = target: T1, BTK; assay: Dissociation of compound from BTK after guanidine-mediated unfolding; conditions: relative to samples without BTK
[4] = target: T3, JAK3 (Homo sapiens, UniProt P52333); assay: Enzymatic IC50 assay; type: biochemical
T3 sequence (P52333 1-1124): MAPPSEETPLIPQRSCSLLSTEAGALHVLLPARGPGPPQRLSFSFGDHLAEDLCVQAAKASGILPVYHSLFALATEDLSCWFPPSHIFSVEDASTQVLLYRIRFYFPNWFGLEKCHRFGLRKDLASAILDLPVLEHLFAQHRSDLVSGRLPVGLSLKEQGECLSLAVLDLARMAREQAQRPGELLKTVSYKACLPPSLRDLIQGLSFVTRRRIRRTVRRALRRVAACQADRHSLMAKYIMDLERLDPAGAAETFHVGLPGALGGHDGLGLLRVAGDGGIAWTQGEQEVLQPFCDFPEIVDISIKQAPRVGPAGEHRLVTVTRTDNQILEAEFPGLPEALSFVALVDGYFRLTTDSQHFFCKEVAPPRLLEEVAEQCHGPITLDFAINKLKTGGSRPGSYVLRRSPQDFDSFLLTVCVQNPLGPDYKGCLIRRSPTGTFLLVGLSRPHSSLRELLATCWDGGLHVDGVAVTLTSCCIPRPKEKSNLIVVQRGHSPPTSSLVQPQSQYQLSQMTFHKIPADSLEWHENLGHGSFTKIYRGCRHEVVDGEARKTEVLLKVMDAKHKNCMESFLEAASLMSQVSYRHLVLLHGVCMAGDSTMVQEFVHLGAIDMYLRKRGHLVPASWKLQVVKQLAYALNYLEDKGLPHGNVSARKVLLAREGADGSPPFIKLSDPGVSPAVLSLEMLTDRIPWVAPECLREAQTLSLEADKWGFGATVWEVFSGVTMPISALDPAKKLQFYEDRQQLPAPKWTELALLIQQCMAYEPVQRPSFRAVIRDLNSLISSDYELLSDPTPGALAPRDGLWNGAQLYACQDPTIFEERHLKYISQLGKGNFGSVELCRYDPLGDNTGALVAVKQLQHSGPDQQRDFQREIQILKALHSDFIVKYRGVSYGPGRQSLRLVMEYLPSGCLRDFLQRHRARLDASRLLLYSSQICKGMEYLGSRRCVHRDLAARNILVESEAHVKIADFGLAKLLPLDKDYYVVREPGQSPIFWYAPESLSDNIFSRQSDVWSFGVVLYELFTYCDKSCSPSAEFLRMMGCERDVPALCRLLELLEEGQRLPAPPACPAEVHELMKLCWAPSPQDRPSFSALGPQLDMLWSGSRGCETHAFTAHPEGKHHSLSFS

[5] = Aqueous solubility; type: physicochemical
[6] = target: EGFR (Homo sapiens, UniProt P00533); assay: Enzymatic IC50 assay; type: biochemical
[7] = Oral bioavailability; conditions: in vivo
[8] = target: T1, BTK; assay: Biochemical residence time using fluorescence competition; type: binding; conditions: for residence time: read-out: BTK residence time τ
[9] = target: T1, BTK; assay: BTK cell occupancy using Alphascreen; type: cell-based

T1 sequence (Q06187 whole entry): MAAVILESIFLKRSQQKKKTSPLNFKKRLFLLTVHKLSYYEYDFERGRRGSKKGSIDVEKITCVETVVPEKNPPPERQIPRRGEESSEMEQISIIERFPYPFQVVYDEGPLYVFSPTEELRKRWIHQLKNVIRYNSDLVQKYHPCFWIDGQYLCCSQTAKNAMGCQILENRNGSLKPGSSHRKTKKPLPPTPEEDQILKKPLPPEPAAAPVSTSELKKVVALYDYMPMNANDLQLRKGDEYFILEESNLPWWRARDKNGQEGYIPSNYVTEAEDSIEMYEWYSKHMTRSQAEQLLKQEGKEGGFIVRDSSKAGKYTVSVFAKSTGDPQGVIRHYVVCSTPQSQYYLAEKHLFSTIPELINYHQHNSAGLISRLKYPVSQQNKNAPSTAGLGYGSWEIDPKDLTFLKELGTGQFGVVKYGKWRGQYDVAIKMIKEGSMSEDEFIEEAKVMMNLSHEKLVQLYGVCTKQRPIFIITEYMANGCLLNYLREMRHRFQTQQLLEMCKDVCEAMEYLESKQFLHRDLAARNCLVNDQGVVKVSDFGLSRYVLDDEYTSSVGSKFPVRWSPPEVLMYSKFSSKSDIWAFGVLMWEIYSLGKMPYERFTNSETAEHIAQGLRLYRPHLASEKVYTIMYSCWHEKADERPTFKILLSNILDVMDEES
EGFR, sequence (P00533 25-1210, species assumed): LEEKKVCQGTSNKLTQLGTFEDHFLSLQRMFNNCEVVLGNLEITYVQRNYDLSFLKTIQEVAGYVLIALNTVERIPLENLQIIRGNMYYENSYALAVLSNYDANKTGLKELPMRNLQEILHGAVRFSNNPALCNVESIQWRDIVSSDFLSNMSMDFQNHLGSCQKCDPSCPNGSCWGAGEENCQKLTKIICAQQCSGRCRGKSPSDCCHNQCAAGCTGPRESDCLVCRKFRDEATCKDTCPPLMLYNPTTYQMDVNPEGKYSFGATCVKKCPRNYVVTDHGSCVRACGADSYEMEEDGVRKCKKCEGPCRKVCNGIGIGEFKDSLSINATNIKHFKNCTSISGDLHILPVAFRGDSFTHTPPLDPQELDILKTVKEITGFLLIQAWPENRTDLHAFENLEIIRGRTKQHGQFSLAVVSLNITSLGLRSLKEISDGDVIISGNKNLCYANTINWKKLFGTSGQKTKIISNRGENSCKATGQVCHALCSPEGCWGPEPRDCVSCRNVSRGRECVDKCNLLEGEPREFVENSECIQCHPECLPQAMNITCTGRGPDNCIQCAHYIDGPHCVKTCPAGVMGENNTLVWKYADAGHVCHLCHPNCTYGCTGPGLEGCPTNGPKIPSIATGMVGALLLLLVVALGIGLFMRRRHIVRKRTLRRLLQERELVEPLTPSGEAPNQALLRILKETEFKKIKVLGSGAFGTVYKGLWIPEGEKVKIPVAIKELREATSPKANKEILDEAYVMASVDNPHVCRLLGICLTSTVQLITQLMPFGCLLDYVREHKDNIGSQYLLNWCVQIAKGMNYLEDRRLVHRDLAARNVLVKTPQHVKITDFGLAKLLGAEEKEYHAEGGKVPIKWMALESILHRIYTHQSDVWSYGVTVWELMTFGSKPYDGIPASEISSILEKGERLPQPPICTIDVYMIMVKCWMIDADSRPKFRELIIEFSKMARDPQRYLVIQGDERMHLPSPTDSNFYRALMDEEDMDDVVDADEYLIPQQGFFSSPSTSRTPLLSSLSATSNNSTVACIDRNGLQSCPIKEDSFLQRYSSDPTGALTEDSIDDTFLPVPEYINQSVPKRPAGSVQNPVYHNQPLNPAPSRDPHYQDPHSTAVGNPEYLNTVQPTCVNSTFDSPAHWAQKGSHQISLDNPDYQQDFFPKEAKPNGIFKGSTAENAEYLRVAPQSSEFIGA

BTK occupancy 20 hrs post-washout ([1]; Ramos B cells, 1 μM, 1 hr, PP-BODIPY): negligible
Structure (SMILES): CC=C(C#N)C(=O)N1CCC[C@@H](n2nc(-c3ccc(Oc4ccccc4)cc3)c3c(N)ncnc32)C1 [Compound 1]

receptor occupancy at 1 µM ([1]; Ramos, read-out: BTK occupancy 20 hrs post-washout): 55% | Selectivity for BTK over ITK [2]: 60 fold | Recovery of compound after guanidine-mediated denaturation of BTK [3]: 88 ± 10% | Selectivity for BTK over JAK3 [4]: > 1,000 fold | Solubility [5]: low solubility | Selectivity for BTK over EGFR [6]: > 1,000 fold | Oral bioavailability [7]: poor oral bioavailability
Structure (SMILES): CC(C)(C)C=C(C#N)C(=O)N1CCC[C@@H](n2nc(-c3ccc(Oc4ccccc4)cc3)c3c(N)ncnc32)C1 [Compound 3, (R)-2-(3-(4-Amino-3-(4-phenoxyphenyl)-1H-pyrazolo[3,4-d]pyrimidin-1-yl)piperidine-1-carbonyl)-4,4-dimethylpent-2-enenitrile]

residence time [8]: 4980 ± 840 min | IC50 [9]: 5 to 27 nM
Structure (SMILES): CC(C)(C=C(C#N)C(=O)N1CCC[C@H]1Cn1nc(-c2ccc(Oc3ccccc3)cc2F)c2c(N)ncnc21)N1CCOCC1 [Compound 8]

residence time [8]: > 12000 min | BTK residence time τ ([8]; room temperature): no evident dissociation | IC50 [9]: 5 to 27 nM
Structure (SMILES): C=CC(=O)N1CCC[C@@H]1Cn1nc(-c2ccc(Oc3ccccc3)cc2F)c2c(N)ncnc21 [PP-ir]
